Columns and labels:
Assay in all cases: relative viability (nuclei count vs DMSO), 5 days (fraction); higher = more cells survive
[1] = compound: C1CNCCC1C2=CC(=NN2)C3=CC=NC=C3
In short: (§1)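 Lung cancer cell lines received five library-drug doses (not always all listed) spaced by √10, pinned on vehicle-anchored 1536-well plates after an overnight stay at 37 °C. Five days later, with no medium change, nuclei were Hoechst-stained, imaged at 4× and counted with MetaXpress. Viability is treated-well nuclei relative to vehicle-well nuclei, as a median across plates. Passing plates had control CV below 25% and at least one doubling.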

[2] = compound: C[C@@H](N)c1ccc(C(=O)Nc2ccnc3[nH]ccc23)cc1
In short: as §1

Tanzisertib = compound: O[C@H]1CC[C@H](Nc2ncc3nc(Nc4c(F)cc(F)cc4F)n([C@H]4CCOC4)c3n2)CC1 [Tanzisertib]
In short: as §1

Row | Cell Line | relative viability ([1]; 0.08 µM) | relative viability ([1]; 0.8 µM) | relative viability ([1]; 2.53 µM) | relative viability ([1]; 8 µM) | relative viability ([2]; 0.04 µM) | relative viability ([2]; 0.1265 µM) | relative viability ([2]; 0.4 µM) | relative viability ([2]; 1.265 µM) | relative viability ([2]; 4 µM) | relative viability (Tanzisertib; 0.08 µM) | relative viability (Tanzisertib; 0.253 µM) | relative viability (Tanzisertib; 0.8 µM) | relative viability (Tanzisertib; 2.53 µM) | relative viability (Tanzisertib; 8 µM)
1 | NCI-H1792 | 0.945 | 0.903 | 0.976 | 0.95 | 0.948 | 0.735 | 0.945 | 0.649 | 0.827 | 1.03 | 1.07 | 0.939 | 0.899 | 0.606
2 | NCI-H596 | 1.02 | 0.995 | 0.983 | 0.959 | 1.06 | 0.905 | 0.907 | 0.815 | 0.967 | 0.927 | 1.05 | 0.893 | 0.914 | 0.818
3 | NCI-H1563 | 0.757 | 0.875 | 0.966 | 1.04 | 0.875 | 1.07 | 0.978 | 0.914 | 1.03 | 1.03 | 1.03 | 0.995 | 0.997 | 0.99
4 | NCI-H460 | 0.939 | 1.05 | 0.971 | 1.01 | 0.963 | 0.997 | 1.06 | 0.851 | 0.993 | 0.994 | 0.976 | 0.992 | 0.982 | 0.98
5 | HCC-366 | 0.969 | 0.995 | 1.01 | 0.999 | 1.01 | 1.04 | 1.09 |  | 1.03 | 0.981 | 1.03 | 1.01 | 0.993 | 0.487
6 | NCI-H2085 | 1.09 |  | 1.01 | 0.983 | 0.944 | 0.96 | 0.958 | 0.935 | 0.861 | 0.987 | 0.991 | 1.02 | 1.03 | 0.976
7 | NCI-H522 | 0.819 | 1.05 | 0.983 | 0.98 | 0.935 | 0.865 | 1.11 | 0.875 | 0.805 | 1.11 | 1.01 | 1.02 | 0.956 | 0.702
8 | PC-14 | 1.01 | 1.06 | 1.13 | 0.987 | 0.906 | 0.979 | 0.995 | 0.707 | 0.779 | 1.06 | 1.07 | 0.996 | 0.984 | 0.546
9 | HOP-62 | 1.09 | 1.11 | 1.05 | 1.02 | 0.957 | 0.949 | 1.03 | 0.884 | 0.899 | 1.1 | 1.03 | 1 | 1.12 | 1.03
10 | NCI-H2087 | 1 | 1.12 | 0.996 | 0.96 | 0.988 | 1.01 | 0.916 | 0.92 | 0.711 | 1.19 | 0.969 | 1.25 | 1.09 | 0.916
11 | NCI-H1793 | 0.835 | 0.702 | 0.923 | 0.878 | 0.973 | 0.952 | 1.08 |  | 1.11 | 1.07 | 0.857 | 0.998 | 0.758 | 0.522
12 | PC-3 [JPC-3] | 1.02 | 1 | 1.08 | 1.03 | 0.986 | 1.04 | 0.997 | 0.949 | 0.884 | 1.02 | 1.06 | 1.11 | 0.983 | 0.871
13 | H3255 | 0.934 | 0.952 | 1.2 | 1 | 1 | 1.21 | 1.16 | 1.01 | 0.925 | 0.998 | 1.03 | 1.08 | 0.957 | 0.599
14 | EMC-BAC-2 | 0.78 | 0.97 | 1.07 | 0.98 | 0.769 | 1.02 | 0.945 | 0.789 | 0.795 | 0.989 | 1.31 | 0.99 | 1.04 | 0.82
15 | SW 900 | 0.843 | 0.67 | 0.88 | 0.995 | 0.92 | 0.965 | 0.887 | 1.24 | 0.986 | 0.811 | 0.87 | 0.936 | 1.18 | 0.691
16 | CAL-12T | 1.01 | 1.18 | 1.08 | 0.99 | 1.11 | 1.04 | 1.23 | 0.945 | 0.839 | 1.03 | 1.09 | 1.08 | 1.05 | 1.03

Row | Cell Line | relative viability ([1]; 0.08 µM) | relative viability ([1]; 0.8 µM) | relative viability ([1]; 2.53 µM) | relative viability ([1]; 8 µM) | relative viability ([2]; 0.04 µM) | relative viability ([2]; 0.1265 µM) | relative viability ([2]; 0.4 µM) | relative viability ([2]; 1.265 µM) | relative viability ([2]; 4 µM) | relative viability (Tanzisertib; 0.08 µM) | relative viability (Tanzisertib; 0.253 µM) | relative viability (Tanzisertib; 0.8 µM) | relative viability (Tanzisertib; 2.53 µM) | relative viability (Tanzisertib; 8 µM)
17 | NCI-H650 | 0.946 | 0.933 | 1.08 | 0.998 |  | 0.849 | 0.932 |  | 0.785 | 0.973 | 1.01 | 0.975 | 1.14 | 0.411
18 | SK-MES-1 | 1.03 | 0.925 | 1.05 | 0.999 | 0.987 | 0.969 | 1 | 0.878 | 0.82 | 1.08 | 0.984 | 0.975 | 0.992 | 0.808
19 | EBC-1 | 1.09 | 0.981 | 1.06 | 1.02 | 1.06 | 1.01 | 1.08 | 1.01 | 0.991 | 1.16 | 0.991 | 0.971 | 0.871 | 0.825
20 | NCI-H1355 | 0.955 | 0.957 | 1.08 | 0.977 | 0.961 | 1.01 | 1.12 | 0.909 | 0.986 | 1.08 | 0.978 | 1.09 | 0.96 | 0.911
21 | NCI-H838 | 0.997 | 0.884 | 1.01 | 0.956 | 0.761 | 0.905 | 0.867 | 0.576 | 0.415 | 0.987 | 0.985 | 0.933 | 0.933 | 0.917
22 | LK-2 | 0.729 | 1.02 | 1.07 | 1.05 | 1.32 | 0.863 | 1.04 | 0.929 | 1.21 | 1.16 | 1.06 | 1 | 1.03 | 1.03
23 | NCI-H1650 | 0.752 | 0.995 | 0.987 | 0.955 | 0.933 | 1.05 | 0.951 | 0.977 | 0.867 | 0.953 | 1 | 0.93 | 0.864 | 0.771
24 | IA-LM | 1 | 1.01 | 0.996 | 1.02 | 1.13 | 1.1 | 1.4 | 1.16 | 1.12 | 1.08 | 0.989 | 0.989 | 0.96 | 0.94
25 | NCI-H1703 | 0.874 | 1.2 | 1.01 | 0.94 | 0.794 | 0.863 | 0.757 |  | 0.906 | 1.14 | 0.899 | 0.843 | 0.717 | 0.719
26 | NCI-H322M | 0.93 | 0.923 | 0.92 | 1.02 | 1.14 | 1.12 | 1.14 |  | 1.25 | 1.06 | 0.969 | 1.02 | 0.919 | 0.867
27 | NCI-H661 | 0.993 | 0.964 | 0.96 | 0.988 | 0.907 | 1.02 | 0.974 | 0.891 | 0.87 | 1.01 | 0.997 | 0.964 | 0.944 | 0.964
28 | NCI-H2228 | 0.921 | 1.17 | 0.983 | 1.07 | 1.17 | 1.05 | 1.13 | 1.03 | 0.814 | 1.19 | 0.853 | 1.02 | 1.06 | 0.864
29 | NCI-H1395 | 0.861 | 0.733 | 1.07 | 0.882 | 0.889 | 0.924 | 0.949 |  | 0.828 | 0.986 | 1 | 0.96 | 1.03 | 0.715
30 | NCI-H520 | 0.899 | 0.816 | 0.988 | 1.03 | 1.14 | 1.12 | 0.999 | 1.03 | 1.15 | 1.09 | 0.981 | 1.03 | 0.919 | 0.907
31 | NCI-H441 | 0.908 | 1.12 | 1.06 | 0.912 | 1.05 | 1.15 | 1.31 | 0.906 | 0.827 | 1.09 | 0.888 | 0.93 | 0.887 | 0.891
